Measurements taken from PMC5389515 (Nucleic Acids Research, 2016).

Experiments:
Trm11–Trm112 complex [1] = target: Trm11–Trm112 complex (Saccharomyces cerevisiae, UniProt Q12463, D291A); experiment: biochemical
Trm11–Trm112 complex [2] = target: Trm11–Trm112 complex (Saccharomyces cerevisiae, UniProt Q12463); experiment: biochemical
Chain of Trm11–Trm112 complex (Saccharomyces cerevisiae, UniProt Q12463) (Q12463 whole entry): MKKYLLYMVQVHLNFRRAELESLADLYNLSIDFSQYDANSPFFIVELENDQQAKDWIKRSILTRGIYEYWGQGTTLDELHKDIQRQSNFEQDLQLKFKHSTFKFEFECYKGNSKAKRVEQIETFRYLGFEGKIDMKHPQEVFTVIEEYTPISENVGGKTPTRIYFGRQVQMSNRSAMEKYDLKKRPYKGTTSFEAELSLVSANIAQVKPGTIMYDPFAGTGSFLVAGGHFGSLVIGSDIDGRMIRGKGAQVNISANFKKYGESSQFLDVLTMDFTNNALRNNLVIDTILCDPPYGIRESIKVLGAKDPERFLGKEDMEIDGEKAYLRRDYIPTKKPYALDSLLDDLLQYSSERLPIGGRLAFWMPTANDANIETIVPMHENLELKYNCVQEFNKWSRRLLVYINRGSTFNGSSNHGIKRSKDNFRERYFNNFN
Chain of Trm11–Trm112 complex (Saccharomyces cerevisiae, UniProt Q12463) (P53738 whole entry partner): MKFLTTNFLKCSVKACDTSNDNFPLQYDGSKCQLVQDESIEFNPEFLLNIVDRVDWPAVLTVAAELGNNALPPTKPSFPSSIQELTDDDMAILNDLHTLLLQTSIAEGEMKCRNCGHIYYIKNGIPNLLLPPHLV

Chain of Trm11–Trm112 complex (Saccharomyces cerevisiae, UniProt Q12463, D291A) (Q12463 whole entry D291A): as the sequence (Q12463 whole entry) above, with D291A counted along it
Chain of Trm11–Trm112 complex (Saccharomyces cerevisiae, UniProt Q12463, D291A) (P53738 whole entry partner): as the sequence (P53738 whole entry partner) above

- Kd (Trm11–Trm112 complex [1]): 3400 ± 600 nM
- Kd (Trm11–Trm112 complex [2]): 1900 ± 300 nM
SMILES: C[S+](CC[C@H](N)C(=O)O)C[C@H]1O[C@@H](n2cnc3c(N)ncnc32)[C@H](O)[C@@H]1O (some centres unmarked) [SAM]
